The record followed here is ChEMBL document CHEMBL1157885, “The discovery and structure-activity relationships of 2-(piperidin-3-yl)-1H-benzimidazoles as selective, CNS penetrating H1-antihistamines for insomnia” (Bioorg Med Chem Lett, 2010).

What is called IC50 is the concentration needed to halve the response being measured. Broadly, the Ki is a dissociation constant, usually derived from enzyme kinetics or from competition with a known ligand. A low value points to higher affinity. As a reminder, the inhibition is the relative decrease from the control value, in per cent. A lower inhibition goes with a response near the control. In general, solubility refers to how much of the substance goes into solution per volume. Lower therefore signals a poorly soluble substance.

In data set [1] the target is T1, Voltage-gated inwardly rectifying potassium channel KCNH2 (Homo sapiens, UniProt Q12809). The data set can be described thus: Inhibition of human ERG channel by electrophysiology assay.
T1 sequence (Q12809 whole entry): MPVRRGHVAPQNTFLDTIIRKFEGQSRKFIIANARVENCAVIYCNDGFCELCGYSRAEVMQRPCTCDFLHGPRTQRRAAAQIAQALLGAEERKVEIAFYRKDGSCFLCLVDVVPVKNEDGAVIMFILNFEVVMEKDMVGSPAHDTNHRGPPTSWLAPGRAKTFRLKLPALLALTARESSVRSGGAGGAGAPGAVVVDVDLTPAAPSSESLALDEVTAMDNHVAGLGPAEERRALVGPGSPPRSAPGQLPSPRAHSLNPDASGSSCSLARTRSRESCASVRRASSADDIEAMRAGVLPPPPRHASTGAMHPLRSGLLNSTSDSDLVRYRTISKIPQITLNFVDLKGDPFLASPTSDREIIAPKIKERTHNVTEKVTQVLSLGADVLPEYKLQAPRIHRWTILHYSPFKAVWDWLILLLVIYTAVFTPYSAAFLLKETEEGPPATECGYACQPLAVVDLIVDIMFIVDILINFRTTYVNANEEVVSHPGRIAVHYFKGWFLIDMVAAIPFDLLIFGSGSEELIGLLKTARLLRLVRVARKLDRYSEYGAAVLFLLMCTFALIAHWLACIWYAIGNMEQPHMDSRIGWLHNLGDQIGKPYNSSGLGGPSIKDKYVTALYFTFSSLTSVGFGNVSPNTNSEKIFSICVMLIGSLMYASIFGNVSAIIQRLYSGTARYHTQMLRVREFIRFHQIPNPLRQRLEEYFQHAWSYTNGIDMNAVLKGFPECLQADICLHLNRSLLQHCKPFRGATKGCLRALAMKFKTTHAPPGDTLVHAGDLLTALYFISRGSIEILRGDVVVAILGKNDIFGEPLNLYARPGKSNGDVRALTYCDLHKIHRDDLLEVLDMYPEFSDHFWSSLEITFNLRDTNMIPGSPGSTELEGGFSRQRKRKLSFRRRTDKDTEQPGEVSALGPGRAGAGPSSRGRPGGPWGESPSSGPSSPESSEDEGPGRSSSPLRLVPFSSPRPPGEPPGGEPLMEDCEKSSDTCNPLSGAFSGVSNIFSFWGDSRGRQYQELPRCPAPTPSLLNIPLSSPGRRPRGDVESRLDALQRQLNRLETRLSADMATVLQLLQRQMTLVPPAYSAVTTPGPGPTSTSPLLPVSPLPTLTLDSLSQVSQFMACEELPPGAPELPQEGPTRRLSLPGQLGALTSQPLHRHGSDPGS
Data set [2] concerns the target Histamine H1 receptor (Homo sapiens, UniProt P35367). Kind of data set: Displacement of [3H]pyrilamine from human histamine H1 receptor expressed in CHO Flp-In cells by liquid scintillation counting. It is filed as cell-based. A general note: Loss of bound radioactivity is the signal in a displacement assay; it reports binding, not function.
The target in data set [3] is Cytochrome P450 2D6 (Homo sapiens, UniProt P10635). The data set can be described thus: Inhibition of CYP2D6. It is filed as ADME.
Chain of Cytochrome P450 2D6 (P10635 whole entry): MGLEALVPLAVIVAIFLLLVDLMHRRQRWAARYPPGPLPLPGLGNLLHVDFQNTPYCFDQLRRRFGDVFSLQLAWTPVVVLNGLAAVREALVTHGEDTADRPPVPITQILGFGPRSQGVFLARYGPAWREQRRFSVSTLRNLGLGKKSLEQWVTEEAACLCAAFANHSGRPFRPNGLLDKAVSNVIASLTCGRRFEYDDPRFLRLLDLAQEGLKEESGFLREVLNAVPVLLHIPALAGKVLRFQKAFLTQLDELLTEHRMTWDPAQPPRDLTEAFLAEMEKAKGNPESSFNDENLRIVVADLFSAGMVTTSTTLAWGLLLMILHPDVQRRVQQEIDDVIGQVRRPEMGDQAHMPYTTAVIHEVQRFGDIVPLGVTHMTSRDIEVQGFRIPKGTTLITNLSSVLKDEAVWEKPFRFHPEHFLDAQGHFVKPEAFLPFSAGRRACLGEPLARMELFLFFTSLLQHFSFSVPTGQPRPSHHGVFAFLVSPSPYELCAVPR
For data set [4], the target named is Cytochrome P450 3A4 (Homo sapiens, UniProt P08684). Kind of data set: (§1) Inhibition of CYP3A4. The class given is ADME.
Chain of Cytochrome P450 3A4 (P08684 whole entry): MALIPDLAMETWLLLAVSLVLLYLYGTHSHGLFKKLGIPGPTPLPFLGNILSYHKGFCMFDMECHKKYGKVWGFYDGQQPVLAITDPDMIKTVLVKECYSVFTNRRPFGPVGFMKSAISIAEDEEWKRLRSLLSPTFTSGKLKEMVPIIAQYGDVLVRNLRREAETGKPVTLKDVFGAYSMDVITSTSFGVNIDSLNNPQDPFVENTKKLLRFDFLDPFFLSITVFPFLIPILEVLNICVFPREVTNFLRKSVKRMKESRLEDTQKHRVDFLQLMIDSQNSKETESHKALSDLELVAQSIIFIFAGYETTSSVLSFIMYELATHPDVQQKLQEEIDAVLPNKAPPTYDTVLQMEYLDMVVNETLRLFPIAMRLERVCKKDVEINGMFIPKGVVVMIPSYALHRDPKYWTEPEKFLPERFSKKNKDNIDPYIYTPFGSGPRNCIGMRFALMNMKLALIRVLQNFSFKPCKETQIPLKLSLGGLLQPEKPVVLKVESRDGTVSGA
For data set [5], the system named is Liver microsomes. Kind of data set: Metabolic stability in human liver microsomes. The class given is ADME, Microsome.
Data set [6] addresses T2, Muscarinic acetylcholine receptor M1 (Homo sapiens, UniProt P11229).
T2 sequence (P11229 whole entry): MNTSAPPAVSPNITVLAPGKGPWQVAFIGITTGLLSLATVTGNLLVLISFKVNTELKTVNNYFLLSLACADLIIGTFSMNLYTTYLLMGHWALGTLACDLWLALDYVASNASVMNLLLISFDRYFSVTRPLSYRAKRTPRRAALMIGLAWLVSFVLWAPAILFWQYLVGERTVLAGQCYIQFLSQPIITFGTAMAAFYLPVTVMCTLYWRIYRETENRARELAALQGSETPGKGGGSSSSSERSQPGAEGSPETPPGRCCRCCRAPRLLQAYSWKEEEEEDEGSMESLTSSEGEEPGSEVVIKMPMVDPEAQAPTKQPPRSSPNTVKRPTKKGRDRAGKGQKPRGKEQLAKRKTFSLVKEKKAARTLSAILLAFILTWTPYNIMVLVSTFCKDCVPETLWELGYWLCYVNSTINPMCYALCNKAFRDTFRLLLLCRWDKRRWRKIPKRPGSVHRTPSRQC
Kind of data set: Displacement of [3H]N-methyl Scopolamine from human muscarinic M1 receptor expressed in CHO Flp-In cells by liquid scintillation counting. It is filed as cell-based.

The target in data set [7] is T1, Voltage-gated inwardly rectifying potassium channel KCNH2. Kind of data set: Displacement of [3H]dofetolide from human ERG channel expressed in HEK293 cells by liquid scintillation counting. It is filed as cell-based.
Data set [8] concerns the target hERG (KCNH2) (Homo sapiens, UniProt Q12809). Kind of data set: Inhibition of human ERG channel at 10 uM by patch clamp assay. On the technique in general: Patch clamp records ionic current or voltage across a cell membrane.
Data set [9] addresses T1, Voltage-gated inwardly rectifying potassium channel KCNH2. Kind of data set: Inhibition of human ERG channel by patch clamp assay.
Data set [10] deals with CYP3A4 (Homo sapiens, UniProt P08684). The description is as §1. The class given is ADME.
Chain of CYP3A4 (P08684 whole entry): as the sequence (P08684 whole entry) above
The nature of data set [11]: Solubility in 0.15 M KCl buffer at pH 7.4 by potentiometric method. The class given is physicochemical.

Chain of Histamine H1 receptor (P35367 whole entry): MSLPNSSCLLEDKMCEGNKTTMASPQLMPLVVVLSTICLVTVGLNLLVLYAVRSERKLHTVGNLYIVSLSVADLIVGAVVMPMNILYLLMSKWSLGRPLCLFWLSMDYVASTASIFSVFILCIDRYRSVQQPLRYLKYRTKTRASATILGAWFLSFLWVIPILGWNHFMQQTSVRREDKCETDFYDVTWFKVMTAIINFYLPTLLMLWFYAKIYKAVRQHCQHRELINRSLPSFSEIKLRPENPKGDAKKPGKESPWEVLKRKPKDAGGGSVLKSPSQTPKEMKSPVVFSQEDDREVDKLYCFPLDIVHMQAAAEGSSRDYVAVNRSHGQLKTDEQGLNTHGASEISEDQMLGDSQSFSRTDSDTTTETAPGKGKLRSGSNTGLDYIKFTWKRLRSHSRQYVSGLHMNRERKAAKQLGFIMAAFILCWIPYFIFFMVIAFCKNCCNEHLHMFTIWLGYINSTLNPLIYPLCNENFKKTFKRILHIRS
Chain of hERG (KCNH2) (Q12809 whole entry): as the sequence (Q12809 whole entry) above

Turning to `COc1ccc(Cn2c(N3CC[C@@H](N(C)C)C3)nc3ccccc32)cc1`, the IC50 was 233 nM in data set [1], above 10 µM in data set [3] and above 5 µM in [4]. For the same compound, the Ki in data set [2] amounted to 8.4 nM; in [6], 2500 nM. Also, in data set [5], the Stability result is given as “Stable”.
Consider `CCOCCn1c(N2CC[C@H](N(C)C)C2)nc2ccccc21`, for which the IC50 in data set [1] was 21 nM; in data set [3], above 10 µM; in [4], above 5 µM. In addition, the values for the Ki in data set [2] and in [6] were 4.8 nM and 1500 nM, respectively. For the same compound, the Stability result in [5] is “Stable”.
As to `COc1ccc(Cn2c(C3CCCN(C)C3)nc3ccccc32)cc1` (configuration not stated), the IC50 in data set [4] is above 5 µM. In data set [7], the Ki is above 5000 nM.
On to `CN1CCCC(c2nc3ccccc3n2CCOc2ccccc2)C1` (configuration not stated), for which the IC50 in data set [4] is above 5 µM.
For `CN1CCCC(c2nc3ccccc3n2Cc2ccccn2)C1` (configuration not stated), the IC50 in [4] was above 5 µM. Moreover, in data set [7], the inhibitory constant (Ki) is above 10000 nM.
In data set [4], `Cc1csc(Cn2c(C3CCCN(C)C3)nc3ccccc32)n1` (configuration not stated) had an IC50 above 5 µM. Also, in data set [7], the Ki was above 10000 nM.
`Fc1ccc(Cn2c(C3CCCN(C4CCCCC4)C3)nc3ccccc32)cc1` (configuration not stated) gave an IC50 in data set [4] above 5 µM. Further, the affinity in data set [7] corresponds to a Ki of 926 nM.
As for `COc1ccc(Cn2c(C3CCCN(C4CCCCC4)C3)nc3ccccc32)cc1` (configuration not stated), in [7], the Ki was found to be 1840 nM.
Take `COc1ccc(Cn2c(C3CCCN(C4CCOCC4)C3)nc3ccccc32)cc1` (configuration not stated): the IC50 in data set [4] is above 5 µM. The inhibitory constant (Ki) in [7] was above 10000 nM.
For `CCOCCn1c(C2CCCN(C)C2)nc2ccccc21` (configuration not stated), in data set [4], the IC50 was above 5 µM.
For `CCOCCn1c([C@@H]2CCCN(C)C2)nc2ccccc21`, the “inhibition (INH)” value in data set [4] is on record as “Not Active”.
On to `CCOCCn1c([C@H]2CCCN(C)C2)nc2ccccc21`, for which the “inhibition (INH)” value in data set [4] is recorded as “Not Active”.
As for `CN1CCC[C@@H](c2nc3ccccc3n2Cc2ccccn2)C1`, the “inhibition (INH)” value in data set [4] is on record as “Not Active”. Moreover, 10 µM produced 39% inhibition in data set [8]. The compound also showed a Ki in data set [7] of 10300 nM.
In the case of `CN1CCC[C@H](c2nc3ccccc3n2Cc2ccccn2)C1`, the “inhibition (INH)” value in [4] is on record as “Not Active”. In data set [7], the Ki was above 10000 nM.
Regarding `CCOCCn1c([C@@H]2CCCN(C3CCOCC3)C2)nc2ccccc21`, the “inhibition (INH)” value in data set [4] was “Not Active”. The IC50 in data set [9] turned out to be 2100 nM. The compound also showed a Ki in data set [7] above 3000 nM.
Consider `COc1ccc(Cn2c(C3CCCN(C(C)C)C3)nc3ccccc32)cc1` (configuration not stated), for which the IC50 in data set [4] is above 5 µM. In data set [7], the Ki stood at 2650 nM.
For the compound `CCOCCn1c(C2CCCN(C3CCOCC3)C2)nc2ccccc21` (configuration not stated), the IC50 in data set [4] is above 5 µM. Besides, the inhibitory constant (Ki) in data set [7] was above 3000 nM.
In the case of `Cc1csc(Cn2c(C3CCCN(C4CCCCC4)C3)nc3ccccc32)n1` (configuration not stated), the IC50 in [4] was above 5 µM. Also, the Ki in [7] came to 1180 nM.
Consider `CCOCCn1c(C2CCCN(C3CCCCC3)C2)nc2ccccc21` (configuration not stated), for which the IC50 in data set [4] was above 5 µM. The compound also gave a Ki in [7] above 10000 nM.
In [4], `Cc1csc(Cn2c(C3CCCN(C4CCOCC4)C3)nc3ccccc32)n1` (configuration not stated) had an IC50 above 5 µM. The same compound returned a Ki in data set [7] above 3000 nM.
`CN1CCCC(c2nc3ccccc3n2CC2CCCO2)C1` (configuration not stated) registered an IC50 in data set [4] above 5 µM. Besides, the Ki in [7] worked out at 638 nM.
In turn, `CC(C)N1CCCC(c2nc3ccccc3n2Cc2ccc(F)cc2)C1` (configuration not stated) displayed an IC50 in data set [4] above 5 µM. Moreover, in [7], the Ki worked out at 1370 nM.
Consider `CN(CC1CCOCC1)C1CCN(c2nc3ccccc3n2Cc2ccc(F)cc2)CC1`, for which the IC50 in data set [10] was above 5 µM. This compound also returned a Ki in data set [6] of 4800 nM.
In turn, `Cc1cnn(C2CCN(c3nc4ccccc4n3Cc3ccc(F)cc3)CC2)c1` returned a solubility in data set [11] below 10 µg/mL.
